This note sets out measurements from patent US8163755B2, “Hexahydrooxazinopterine compounds” (Takeda Pharmaceutical Company Limited, priority 2009, dated 2012).

The target in this experiment is T1, human mTOR (Homo sapiens, UniProt P42345).
T1 construct: purchased Invitrogen
Kind of experiment: Inhibition of mTOR (Example A, LanthaScreen TR-FRET, GFP-4E-BP1 substrate). The format is biochemical. Conditions: inhibition of human mTOR in the assay of Example A. As to the method: Example A Inhibition of mTOR
Purified mTOR are purchased from Invitrogen. mTOR activity was determined using Invitrogen's LanthaScreen system. The inhibitory properties of compounds relative to mTOR may be determined using a black 384-well-plate format in the following buffer 50 mM Hepes, 10 mM NaCl, 10 mM MgCl2, 0.2 mM EDTA, 0.01% Brij35, 2 mM DTT at pH7.3. The test compound is prepared in DMSO using 2 fold serial dilutions for 11 data points which are added to the buffer so that each dilution contains 3% DMSO.
An Assay for mTOR Inhibition is as Follows:
Combine in each well 2 μl of 1.2 μM GFP-4E-BP1 (Invitrogen) and 150 μM ATP (in buffer), 2 μl of diluted test compound (3% DMSO in buffer), and 2 μl of 6 nM mTor in buffer. The reaction mixture is then incubated at room temperature for 30 min, and quenched by adding 40 mM ETDA with 4 nM Tb-anti-p4E-BP1 [pThr46] antibody in TR-FRET dilution buffer (Invitrogen). The plate is kept at room temperature for 1 hour and then read using PheraStar (BMG labtech) LanthaScreen mode.
pIC50 values, the negative of the log of the IC50, are calculated by non-linear curve fitting of the compound concentrations and percent of inhibition to the standard pIC50 equation.
A general note: Time-resolved FRET reads energy transfer from a long-lived donor to a nearby acceptor.

For the molecule `C[C@]12COCCN1c1nc(-c3ccc(NC(=O)NC4CC4)cc3)ncc1N(CC(F)(F)F)C2=O` [Example 53, (R)-1-cyclopropyl-3-(4-(6a-methyl-6-oxo-5-(2,2,2-trifluoroethyl)-5,6,6a,7,9,10-hexahydro-[1,4]oxazino[3,4-h]pteridin-2-yl)phenyl)urea], the IC50 (usually the midpoint of a concentration-inhibition curve) is less than 31.6 nM.
